# ± gives the expanded uncertainty stated by the source.
# Assay: xn = mol fraction of the nth substance listed
# Settings: for viscosity / mass density: 91.2 kPa, Liquid; for viscosity: Concentric cylinders viscometry; for mass density: Vibrating tube method; for surface tension liquid-gas: Ring tensiometer
structure (smiles),measurement,setting,value
C[C@H](O)C(=O)O [(S)-2-hydroxypropanoic acid] + C[N+](C)(C)CCO.[Cl-],viscosity,"293 K, x2 = 0.5",309 ± 12 mPa·s
same,mass density,"293 K, x2 = 0.5",1150 ± 10 kg/m3
same,surface tension liquid-gas,"298 K, x2 = 0.5",42.87 ± 6.2 mN/m
same,mass density,"298 K, x2 = 0.5",1150 ± 10 kg/m3
same,viscosity,"303 K, x2 = 0.5",151 ± 6 mPa·s
same,mass density,"303 K, x2 = 0.5",1150 ± 10 kg/m3
same,mass density,"308 K, x2 = 0.5",1140 ± 10 kg/m3
same,viscosity,"313 K, x2 = 0.5",101 ± 3 mPa·s
same,mass density,"313 K, x2 = 0.5",1140 ± 10 kg/m3
same,mass density,"318 K, x2 = 0.5",1140 ± 10 kg/m3
same,viscosity,"323 K, x2 = 0.5",59 ± 2 mPa·s
same,mass density,"323 K, x2 = 0.5",1130 ± 10 kg/m3
same,viscosity,"333 K, x2 = 0.5",35 ± 1 mPa·s
same,viscosity,"343 K, x2 = 0.5",34 ± 1 mPa·s
same,viscosity,"353 K, x2 = 0.5",25 ± 1 mPa·s
C[C@H](O)C(=O)O [(S)-2-hydroxypropanoic acid] + O=C[C@H](O)[C@@H](O)[C@H](O)[C@H](O)CO,viscosity,"293 K, x1 = 0.833",335 ± 14 mPa·s
same,mass density,"293 K, x1 = 0.833",1280 ± 10 kg/m3
same,surface tension liquid-gas,"298 K, x1 = 0.833",37.42 ± 2 mN/m
same,mass density,"298 K, x1 = 0.833",1270 ± 10 kg/m3
same,viscosity,"303 K, x1 = 0.833",161 ± 8 mPa·s
same,mass density,"303 K, x1 = 0.833",1270 ± 10 kg/m3
same,mass density,"308 K, x1 = 0.833",1270 ± 10 kg/m3
same,viscosity,"313 K, x1 = 0.833",79 ± 4 mPa·s
same,mass density,"313 K, x1 = 0.833",1260 ± 10 kg/m3
same,mass density,"318 K, x1 = 0.833",1260 ± 10 kg/m3
same,viscosity,"323 K, x1 = 0.833",34 ± 2 mPa·s
same,mass density,"323 K, x1 = 0.833",1250 ± 10 kg/m3
same,viscosity,"333 K, x1 = 0.833",18 ± 1 mPa·s
same,viscosity,"343 K, x1 = 0.833",16 ± 1 mPa·s
same,viscosity,"353 K, x1 = 0.833",13 ± 1 mPa·s

# From the NIST ThermoML archive (doi:10.1016/j.fluid.2019.01.025)
